Key:
PRMT5/MEP50 complex = target: T1, PRMT5/MEP50 complex (Homo sapiens, UniProt O14744); experiment: PRMT5/MEP50 SPA Assay; assay type: biochemical; conditions: Mean ± SEM
T1 construct: FLAG; made in house; host or cells: baculovirus/Sf9 insect cells
Excerpt: The purpose of this assay is to measure the ability of a test compound to inhibit the enzyme activity of PRMT5 in vitro by inhibiting the catalytic activity of PRMT5/MEP50 complex, indicated by the transfer of radiolabeled methyl-^3H to a substrate peptide derived from the N-terminal sequence of the human histone H4.
Express the PRMT5/MEP50 enzyme complex using a baculovirus/Sf9 system and purify using anti-FLAG affinity chromatography, (essentially as described in preparations by Stephen Antonysamy, Zahid Bonday, Robert M. Campbell, Brandon Doyle, Zhanna Druzina, Tarun Gheyi, Bomie Han, Louis N. Jungheim, Yuewei Qian, Charles Rauch, Marijane Russell, J. Michael Sauder, Stephen R. Wasserman, Kenneth Weichert, Francis S. Willard, Aiping Zhang, and Spencer Emtage; Crystal structure of the human PRMT5:MEP50 complex, Proceedings of the National Academy of Sciences, 2012, Volume 109, pages 17960-17965.) Dilute purified enzyme to a working stock of 6.67 nM in assay buffer (50 mM TRIZMA® preset pH ˜8.5, 1 mM DTT, 0.005% TWEEN® 80 0.01% HSA).
Add enzyme (15 μL/well) to a 384-well assay plate (CORNING® cat. #3706). Add test compounds from a 10 mM DMSO stock solution to the plate as serial dilutions in assay buffer to achieve a final test concentrations ranging from 50.0 μM to 25 nM. Create a reaction mix containing 1 μM Histone H4 biotinylated peptide substrate, H-[…]-biotin (SEQ ID NO: 1), prepared by FastMoc chemistry with an ABI 431 peptide, and 4 μM ^3H-SAM; 15 Ci/mmol, 0.366 mCi/mL, 37 μM, PERKIN-ELMER® cat. # NET155000MC) in assay buffer. To each plate well, add 5 μL of the peptide/^3H-SAM reaction mix to yield final assay conditions of 5 nM enzyme, 1 ^3H-SAM, 250 nM peptide and 50 μM maximum test compound concentration with 0.5% DMSO, at a final volume of 20 μL. Incubate the assay for 2 hr at room temperature. Stop the reaction with the addition of guanidine HCl (5 M, 20 μL, Sigma cat. # G3272).
Suspend strepavidin YSI SPA scintillation beads (PERKIN-ELMER®, #RPNQ0012) at 1 mg/mL in pH ˜8.5 Tris buffer containing 5 M guanidine HCl. To each well, add 20 μL of this bead suspension, agitate the resulting mixtures, and incubate for 1 hr at room temperature prior to measuring their radioactivity, using a microplate liquid scintillation counter as an indication of the formation of methylated peptide product.
Generate raw data from the radioactivity measurement as counts per min (CPM). Employ an uninhibited control (DMSO) and maximum inhibited control (250 μM dehydrosinefungin, (isolated essentially as described in Berry, D. R. & Abbott, B. J. Incorporation of carbon-14-labeled compounds into sinefungin (A9145), a nucleoside antifungal antibiotic. J. Antibiot. 1978 (31) 185-191 and references cited therein)). […]

EOL-1 cells = experiment: Combination with BCL2 inhibitor ABT-199 in AML cell lines, 7-day cell proliferation assay; assay type: cell-based; conditions: Homo sapiens, EOL1, 168 h; EOL-1, treatment duration 7 Days; single agent or combination; read-out: Absolute IC50 (cell proliferation)
Experimental: (§1) On day 1, plate GDM-1 [ATCC®, maintained throughout in GDM-1 assay medium: RPMI-1640 medium/20% heat-inactivated FBS (GIBCO®)] and EOL-1 cells [ATCC®, maintained throughout in EOL-1 assay medium: RPMI-1640 medium/10% heat-inactivated FBS (GIBCO®)] at 4000 and 10000 cells/well (100 μL/well) respectively, in a 96-well assay plate (BD FALCON® 35-3219). Incubate the plates in a 37° C. incubator (5% CO2) for 18-24 hr. On day 2, prepare 2.0% DMSO with assay medium (as indicated above or RPMI-1640/20% heat-inactivated FBS and RPMI-1640/10% FBS for GDM-1 and EOL-1, respectively) and add 100 μL to columns 3-12 in a preparation plate. Prepare test compounds ABT-199 at 10 μM in 2% DMSO and PRMT5 inhibitor Example 1 at 25 μM in 2% DMSO and dispense into wells A2 and B2, respectively, followed by serial dilution (1:3, 10 points) to wells A11 and B11, respectively. For combinational treatment, serially dilute test compound examples at 1:2 in assay medium (as indicated above or RPMI-1640/20% heat-inactivated FBS and RPMI-1640/10% FBS for GDM-1 and EOL-1, respectively) in wells C2-C11 (0.1 μM) to H2-H11, then serially dilute test compound ABT-199 1:3 from C2-H2 (1.0 μM) to C11-H11. […] Incubate plates for 10-15 min at room temperature before reading. Measure luminescence using the PERKIN-ELMER® ENVISION® Multi-Label Reader. […]

GDM-1 cells = experiment: Combination with BCL2 inhibitor ABT-199 in AML cell lines, 4-day cell proliferation assay; assay type: cell-based; conditions: Homo sapiens, 96 h; GDM-1, treatment duration 4 Days; single agent or combination; read-out: Absolute IC50 (cell proliferation)
Experimental: as §1

T1 sequence (O14744 whole entry): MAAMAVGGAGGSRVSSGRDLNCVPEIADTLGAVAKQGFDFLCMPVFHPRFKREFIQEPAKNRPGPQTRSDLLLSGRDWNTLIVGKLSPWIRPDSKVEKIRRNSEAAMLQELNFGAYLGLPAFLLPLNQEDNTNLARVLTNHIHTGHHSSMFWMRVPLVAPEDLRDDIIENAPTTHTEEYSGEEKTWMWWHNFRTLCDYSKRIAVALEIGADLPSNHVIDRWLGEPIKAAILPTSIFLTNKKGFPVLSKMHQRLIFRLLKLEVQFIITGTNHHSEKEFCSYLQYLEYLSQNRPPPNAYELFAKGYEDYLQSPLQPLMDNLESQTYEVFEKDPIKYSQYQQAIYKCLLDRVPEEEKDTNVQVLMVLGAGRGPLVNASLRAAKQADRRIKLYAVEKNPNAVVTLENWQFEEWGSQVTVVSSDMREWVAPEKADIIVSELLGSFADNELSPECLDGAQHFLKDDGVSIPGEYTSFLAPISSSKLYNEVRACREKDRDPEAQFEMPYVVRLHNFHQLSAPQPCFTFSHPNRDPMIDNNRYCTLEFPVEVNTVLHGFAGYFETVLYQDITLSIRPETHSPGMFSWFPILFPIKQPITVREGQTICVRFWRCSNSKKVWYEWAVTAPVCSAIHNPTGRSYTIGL
T1 sequence (Q9BQA1 whole entry partner): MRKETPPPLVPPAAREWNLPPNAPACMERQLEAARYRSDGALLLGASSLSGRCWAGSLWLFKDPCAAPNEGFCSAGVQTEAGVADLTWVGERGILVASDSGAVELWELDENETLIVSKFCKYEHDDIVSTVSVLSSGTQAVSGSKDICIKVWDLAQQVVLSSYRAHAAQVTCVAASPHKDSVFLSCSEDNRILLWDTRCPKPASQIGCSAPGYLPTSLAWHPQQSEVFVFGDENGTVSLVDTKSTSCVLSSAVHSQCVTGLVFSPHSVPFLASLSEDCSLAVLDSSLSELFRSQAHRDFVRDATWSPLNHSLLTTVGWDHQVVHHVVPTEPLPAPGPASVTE

## C[C@@](O)(c1ccc(Cl)cc1)[C@H]1O[C@@H](n2ccc3c(N)ncnc32)[C@H](O)[C@@H]1O [Example 3, (2R,3R,4S,5S)-2-(4-Aminopyrrolo[2,3-d]pyrimidin-7-yl)-5-[(1R)-1-(4-chlorophenyl)-1-hydroxy-ethyl]tetrahydrofuran-3,4-diol]
PRMT5/MEP50 complex
  IC50: 5.23 nM

## Nc1ncnc2c1ccn2[C@@H]1O[C@H]([C@H](O)c2ccc(Cl)cc2)[C@@H](O)[C@H]1O [Example 1, (2R,3R,4S,5R)-2-(4-Aminopyrrolo[2,3-d]pyrimidin-7-yl)-5-[(R)-(4-chlorophenyl)-hydroxy-methyl]tetrahydrofuran-3,4-diol]
EOL-1 cells
  IC50: 6 nM
GDM-1 cells
  IC50: 224 nM
PRMT5/MEP50 complex
  IC50: 4.27 nM

## Nc1ncnc2c1ccn2[C@@H]1O[C@H]([C@H](O)c2ccccc2)[C@@H](O)[C@H]1O [Example 2, (2R,3R,4S,5R)-2-(4-Aminopyrrolo[2,3-d]pyrimidin-7-yl)-5[(R)-hydroxy(phenyl)methyl]tetrahydrofuran-3,4-diol]
PRMT5/MEP50 complex
  IC50: 9.51 nM

— patent publication US9840532B2, “5′-substituted nucleoside compounds” (Eli Lilly and Company, priority 2015, dated 2017)
